According to US20130190268A1, “BIOTINYLATED POLYSACCHARIDES HAVING AN ANTITHROMBOTIC ACTIVITY AND IMPROVED METABOLIC STABILITY” (SANOFI, priority 2010, published 2013):
Where a name gives a salt, the structure may show the parent alone.

Legend:
[1] = target: coagulation factor Xa, in the presence of antithrombin (Homo sapiens, UniProt P01008); test: Antithrombin-dependent anti-factor Xa activity (in vitro inhibition of coagulation factor Xa); format: biochemical; settings: read-out: IC50 (dose enabling 50% inhibition), anti-Xa activity (converted)
Text: The activity of the compounds according to the invention was studied in an in vitro model of inhibition of coagulation factor Xa, in the presence of antithrombin (antithrombin-dependent anti-factor Xa activity), as described by J.-M. Herbert et al., Blood, 1998, 91, 4197-4205.

[2] = target: T1, biotinidase (Homo sapiens, UniProt P43251); test: Metabolic stability in human plasma medium at pH 6.0 with respect to biotinidase activity; format: in vitro ADME; settings: pooled human plasma, pH 6.0, 1 μM, 37° C., LC/MS-MS
T1 construct: Ten individual batches of human plasma originating from 5 men and 5 women; from tissue; host or cells: pooled human plasma (5 men, 5 women), sodium citrate
T1 sequence (P43251 22-523): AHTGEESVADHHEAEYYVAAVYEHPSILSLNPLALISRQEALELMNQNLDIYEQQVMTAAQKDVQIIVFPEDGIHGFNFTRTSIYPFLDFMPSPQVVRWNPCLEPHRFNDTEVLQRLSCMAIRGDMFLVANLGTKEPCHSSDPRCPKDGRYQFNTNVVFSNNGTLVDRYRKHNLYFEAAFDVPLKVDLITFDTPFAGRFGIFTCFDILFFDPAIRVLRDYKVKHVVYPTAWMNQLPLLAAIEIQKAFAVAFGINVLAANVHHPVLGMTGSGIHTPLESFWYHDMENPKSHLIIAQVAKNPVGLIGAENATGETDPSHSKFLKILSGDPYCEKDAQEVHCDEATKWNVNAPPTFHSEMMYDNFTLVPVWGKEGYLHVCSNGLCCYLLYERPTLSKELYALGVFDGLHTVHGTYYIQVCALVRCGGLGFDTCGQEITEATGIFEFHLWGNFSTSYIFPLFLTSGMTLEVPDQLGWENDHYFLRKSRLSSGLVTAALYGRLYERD
Experimental: The metabolic stability of the compounds according to the invention with respect to biotinidase activity was studied on human plasma having been sampled on sodium citrate as anticoagulant. Ten individual batches of human plasma originating from 5 men and 5 women, constituting the evaluation matrix, were used and pooled in order to evaluate the metabolic stability of the compounds. The human plasma was incubated under the following conditions: • incubation medium (freshly prepared): 740 μl of 54 mM of sodium phosphate buffer, pH 6.0, containing 1.08 mM of disodium EDTA and 4.3 mM of cysteamine hydrochloride, • human plasma: 40 μl • concentrations of the compounds to be studied: 1 μM • incubation time: 24 hours • incubation temperature: 37° C.
The reaction is initiated by adding the compound to be studied, after a 10-minute period of preincubation of the plasma and of the incubation medium. At the end of the incubation period (24 hours), the reaction is stopped.
The compounds according to the invention are quantified according to a specific LC/MS-MS method.
The metabolization of each compound studied is measured by monitoring the disappearance of the unchanged product, the concentrations being determined for each incubation sample at time 0 hours and at time 24 hours, and the percentage metabolization being calculated according to the following formula: […]
The terms [compound at T 24H] and [compound at T 0H] correspond to the concentration of the compound to be studied in the reactive medium after 24 hours and before the beginning of the reaction, respectively.

[3] = target: avidin (Gallus gallus, UniProt P02701); test: Neutralization with avidin: avidin-coated beads, centrifugation, anti-factor Xa activity assayed in supernatant; format: binding; settings: after centrifugation
Experimental: The resulting mixture is centrifuged and the anti-factor Xa activity is assayed in the supernatant.

Chain of coagulation factor Xa, in the presence of antithrombin (P01008 33-464): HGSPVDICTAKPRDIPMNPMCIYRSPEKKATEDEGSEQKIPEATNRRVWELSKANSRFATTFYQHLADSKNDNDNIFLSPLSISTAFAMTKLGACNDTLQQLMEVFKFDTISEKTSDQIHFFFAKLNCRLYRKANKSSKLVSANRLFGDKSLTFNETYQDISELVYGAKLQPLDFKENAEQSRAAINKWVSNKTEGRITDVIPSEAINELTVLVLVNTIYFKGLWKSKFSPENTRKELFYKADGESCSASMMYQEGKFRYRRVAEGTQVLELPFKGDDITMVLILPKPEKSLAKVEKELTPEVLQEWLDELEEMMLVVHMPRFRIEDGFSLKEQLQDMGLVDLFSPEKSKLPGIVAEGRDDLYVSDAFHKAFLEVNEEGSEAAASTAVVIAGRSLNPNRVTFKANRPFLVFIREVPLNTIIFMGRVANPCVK
Chain of avidin (P02701 25-152, species assumed): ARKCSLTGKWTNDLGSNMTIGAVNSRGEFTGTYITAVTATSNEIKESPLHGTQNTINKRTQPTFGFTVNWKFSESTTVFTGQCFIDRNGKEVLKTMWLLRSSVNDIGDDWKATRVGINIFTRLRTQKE

Row | IC50 [1] [nM] | metabolization percentage (compound metabolized after 24 h) [2] [%] | anti-factor Xa activity in the supernatant ([3]; 0.00005 μg product/μg avidin) [%] | anti-factor Xa activity in the supernatant ([3]; 0.0001 μg product/μg avidin) [%] | anti-factor Xa activity in the supernatant ([3]; 0.001 μg product/μg avidin) [%] | anti-factor Xa activity in the supernatant ([3]; 0.01 μg product/μg avidin) | Structure (SMILES)
1 | 10 | 1.7 | 1.3 ± 0.9 | 5.6 ± 1.0 | 6.0 ± 0.2 | 6.8 ± 2.0% | COC1OC(COS(=O)(=O)O)C(OC2OC(C(=O)O)C(OC3OC(COS(=O)(=O)O)C(OC4OC(C(=O)O)C(OC5OC(COS(=O)(=O)O)C(OC)C(OC)C5NC(=O)CCCCCOCCCCCC5SCC6NC(=O)NC65)C(OC)C4OC)C(OS(=O)(=O)O)C3OS(=O)(=O)O)C(OC)C2OC)C(OS(=O)(=O)O)C1OS(=O)(=O)O [Compound 1, Methyl (2-deoxy-3,4-di-O-methyl-2-{[6-({5-[(3aS,4S,6aR)-2-oxohexahydro-1H-thieno[3,4-d]imidazol-4-yl]pentyl}oxy)hexanoyl]amino}-6-O-sulfonato-α-D-glucopyranosyl)-(1→4)-(2,3-di-O-methyl-β-D-glucopyranosyluronate)-(1→4)-(2,3,6-tri-O-sulfonato-α-D-glucopyranosyl)-(1→4)-(2,3-di-O-methyl-α-L-idopyranosyluronate)-(1→4)-2,3,6-tri-O-sulfonato-α-D-glucopyranoside, sodium salt]
2 | 9.93 | −3.3 | 4.9 ± 1.4 | 3.0 ± 0.7 | 5.2 ± 0.5 | 4.1 ± 0.2% | COC1OC(COS(=O)(=O)O)C(OC2OC(C(=O)O)C(OC3OC(COS(=O)(=O)O)C(OC4OC(C(=O)O)C(OC5OC(COS(=O)(=O)O)C(OC)C(OC)C5NC(=O)CCCCCN(C)CCCCCC5SCC6NC(=O)NC65)C(OC)C4OC)C(OS(=O)(=O)O)C3OS(=O)(=O)O)C(OC)C2OC)C(OS(=O)(=O)O)C1OS(=O)(=O)O [Compound 2, Methyl (2-deoxy-3,4-di-O-methyl-2-{[6-(methyl{5-[(3aS,4S,6aR)-2-oxohexahydro-1H-thieno[3,4-d]imidazol-4-yl]pentyl}amino)hexanoyl]amino}-6-O-sulfonato-α-D-glucopyranosyl)-(1→4)-(2,3-di-O-methyl-β-D-glucopyranosyluronate)-(1→4)-(2,3,6-tri-O-sulfonato-α-D-glucopyranosyl)-(1→4)-(2,3-di-O-methyl-α-L-idopyranosyluronate)-(1→4)-2,3,6-tri-O-sulfonato-α-D-glucopyranoside, sodium salt]
3 | 9.22 | 5.3 | 3.6 ± 1.2 | 2.5 ± 2.3 | 4.5 ± 0.8 | 2.4 ± 0.0% | COC1OC(COS(=O)(=O)O)C(OC2OC(C(=O)O)C(OC3OC(COS(=O)(=O)O)C(OC4OC(C(=O)O)C(OC5OC(COS(=O)(=O)O)C(OC)C(OC)C5NC(=O)CCCCNC(=O)NCCCCC5SCC6NC(=O)NC65)C(OC)C4OC)C(OS(=O)(=O)O)C3OS(=O)(=O)O)C(OC)C2OC)C(OS(=O)(=O)O)C1OS(=O)(=O)O [Compound 4, Methyl (2-deoxy-3,4-di-O-methyl-2-({5-[({4-[(3aS,4S,6aR)-2-oxohexahydro-1H-thieno[3,4-d]imidazol-4-yl]butyl}carbamoyl)amino]pentanoyl}amino)-6-O-sulfonato-α-D-glucopyranosyl)-(1→4)-(2,3-di-O-methyl-β-D-glucopyranosyluronate)-(1→4)-(2,3,6-tri-O-sulfonato-α-D-glucopyranosyl)-(1→4)-(2,3-di-O-methyl-α-L-idopyranosyluronate)-(1→4)-2,3,6-tri-O-sulfonato-α-D-glucopyranoside, sodium salt]

Row | Structure (SMILES) | IC50 [1] [nM] | metabolization percentage (compound metabolized after 24 h) [2] [%] | anti-factor Xa activity in the supernatant ([3]; 0.00005 μg product/μg avidin) [%] | anti-factor Xa activity in the supernatant ([3]; 0.0001 μg product/μg avidin) [%] | anti-factor Xa activity in the supernatant ([3]; 0.001 μg product/μg avidin) [%] | anti-factor Xa activity in the supernatant ([3]; 0.01 μg product/μg avidin)
4 | COC1OC(COS(=O)(=O)O)C(OC2OC(C(=O)O)C(OC3OC(COS(=O)(=O)O)C(OC4OC(C(=O)O)C(OC5OC(COS(=O)(=O)O)C(OC)C(OC)C5NC(=O)CCCCCN(C)C(=O)CCCCC5SCC6NC(=O)NC65)C(OC)C4OC)C(OS(=O)(=O)O)C3OS(=O)(=O)O)C(OC)C2OC)C(OS(=O)(=O)O)C1OS(=O)(=O)O [Compound 3, Methyl (2-deoxy-3,4-di-O-methyl-2-{[6-(methyl{5-[(3aS,4S,6aR)-2-oxohexahydro-1H-thieno[3,4-d]imidazol-4-yl]pentanoyl}amino)hexanoyl]amino}-6-O-sulfonato-α-D-glucopyranosyl)-(1→4)-(2,3-di-O-methyl-β-D-glucopyranosyluronate)-(1→4)-(2,3,6-tri-O-sulfonato-α-D-glucopyranosyl)-(1→4)-(2,3-di-O-methyl-α-L-idopyranosyluronate)-(1→4)-2,3,6-tri-O-sulfonato-α-D-glucopyranoside, sodium salt] | 9.53 | 0.8 | 0.7 ± 2.4 | 1.2 ± 0.6 | 1.8 ± 0.2 | 0.9%^(1)
5 | COC1OC(COS(=O)(=O)O)C(OC2OC(C(=O)O)C(OC3OC(COS(=O)(=O)O)C(OC4OC(C(=O)O)C(OC5OC(COS(=O)(=O)O)C(OC)C(OC)C5NC(=O)CCCCCNC(=O)CCCCC5SCC6NC(=O)NC65)C(OC)C4OC)C(OS(=O)(=O)O)C3OS(=O)(=O)O)C(OC)C2OC)C(OS(=O)(=O)O)C1OS(=O)(=O)O (stereo not drawn) [Idrabiotaparinux, idrabiotaparinux, reference compound] | 9.49 | 15.9 | 1.2 ± 0.0 | 2.5 ± 1.1 | 2.6 ± 0.3 | 5.2 ± 3.4%
